Results as given in patent US9248108B2 (Ottawa Hospital Research Institute, priority 2012, dated 2016).
Read-outs that look alike come from different tables or passages of the source. Marks after values point to notes of the source that are not given here.

Key:
[1] = test system: 9-month-old CF1 mice
Text: Four (4) days later, the female mice are caged individually with fertile males (1:1) overnight. The females were examined in the morning for the presence of a vaginal plug (indicative of mating) and “plugged” females are considered E0 and separated from the males. Mice without a plug were continued mating until a plug was seen, or for up to a total of 4 days (average length of a mouse estrus cycle). Mice were sacrificed on E12 (“unplugged” mice were also sacrificed, taking the next morning following the 4-day-mating as E0) and their uterine horns inspected for normal embryos and dead embryos (resorption).

[2] = test system: ovarian polyamines; test: Ovarian polyamine quantification by ion chromatography; assay type: in vivo, mouse; settings: older mice, 1% putrescine in drinking water for several days
Experimental: A Dionex ion chromatography system was used to analyze polyamines during ovulation. This system employs an online conductivity detector coupled with an anion suppressor such that only cations are detected. Ovaries were extracted in 5% trichloric acid (TCA) followed by extraction with diethyl ether. The TCA extracts were diluted in water before being applied to the ion chromatography system.
(§1) Polyamines from ovarian samples were determined by ion chromatography (IC) system (Rey and Pohl, 2003. J. Chromatography A 997:199-206). Ovaries were collected immediately after animal sacrifice and stored at −80° C. until use. The samples were thawed and minced, and then 5% trichloroacetic acid (TCA) was added (20 μl/mg). The samples were ultra-sonicated 30 seconds thrice. After centrifugation, the supernatants were extracted twice with diethyl ether. The mouse blood was collected in a tube containing 1 iu/ml heparin (LEO). After centrifugation, the supernatant (plasma) was collected and 10% TCA was added by 1:1 in volume. These plasma samples were extracted twice with diethyl ether, as noted above. The extracts were diluted 10 times in water for polyamine analysis on Dionex Ion ICS-2100 system (Thermo scientific, Dionex, Sunnyvale, Calif., USA) according to the manufacture instructions, using the support software of PeakNet 6.40 SP5 Build 778.

[3] = 1 mM putrescine in drinking water, stated by Penderville H. et al; cited from earlier work
[4] = test system: oocytes of C57BL/6 (8 months) mice
Experimental: GV oocytes isolated from the ovaries of control mice were incubated for 17 h in αMEM. […] Metaphase II eggs following IVM were karyotyped and data expressed. Karyotype analyses were carried out by dual stains (anti-CREST and Sytox green) of metaphase II chromosomes. N: number of interpretable metaphase II karyotypes containing at least 18 dyads or the equivalent (e.g. 17 dyads plus 2 separated sister chromatids). Hypoploid: 18-19 dyads. Euploid: 20 dyads. Hyperploid: 21. PSSC: any karyotypes containing separated sister chromatid(s), with the total of at least 18 dyads or the equivalents. Aneuploid: 2×hyperploid+PSSC. Detailed breakdowns are in Table 14.
Mice were euthanized by cervical dislocation 44-46 h after they were primed with 5 IU equine chorionic gonadotropin (eCG) intraperitonally. […] Ovaries were immediately removed and minced in M2 medium (Sigma; unless otherwise indicated, other chemicals used in this study were also purchased from Sigma) to release oocytes. Oocytes with a clear germinal vesicle (GV) were used for in vitro maturation (IVM) for 17 hours in IVM medium (αMEM medium supplemented with 5% fetal bovine serum and 1 mM L-glutamine) overlaid with mineral oil.
Chromosome spread was carried out according to Hodges and Hunt (Hodges & Hunt, 2002) with minor modifications. In brief, oocytes or 2-cell embryos were collected in M2 medium. The zona pellucida was removed by treatment with 0.5 units/μl pronase at 37° C. for 20 sec. Zona-free oocytes/embryos were rinsed in M2 medium to detach polar bodies. The oocytes/embryos were individually plated onto glass slides (1-10 oocytes/embryos per slide) predipped in the fixative (prepared weekly and stored at 4° C.) containing 1% paraformaldehyde (w/v), 0.15% Triton X-100 (v/v), and 3 mM dithiothreitol, pH 9.2. Slides were kept overnight in moist boxes at room temperature. The slides were then rinsed in 0.5% Kodak Flo (Eastman Kodak Company, Rochester, N.Y.) solution and air-dried. The slides were incubated in 1:200 diluted human anti-centromere serum (Immunovision, Springdale, Ark.) in PBS containing 1% BSA overnight at 4° C., in 1:300 diluted secondary antibody (goat anti-human) conjugated with rhodamine (Jackson ImmunoResearch) in PBS-BSA for 1 h at room temperature, and 0.1% SYTOX green (Invitrogen, Eugene, Oreg.) in PBS for 30 min at room temperature. To avoid bias, the slides were coded by a colleague before being examined by an investigator using epifluorescence microscopy and photographed. Decoding was done after karyotypes were tabulated.

[5] = test system: oocytes of very old (16 months) odc-/+ mice
Text: Table 12 Summary of two independent experiments. N: total numbers of oocytes in two experiments; GV: oocytes remained in prophase I; MI, no germinal vesicle and no polar body seen (used for spindle examination); PB1, oocytes with first polar body; Fragmented: abnormal cleavage likely due to parthenogenetic activation. * one MI oocyte was lost during handling.

[6] = in vivo; settings: mouse, plasma
Experimental: as §1

[7] = number of MII eggs, 1% putrescine drinking water one week, IVM with 5 mM putrescine

SMILES: NCCCCN [Putrescine, putrescine]
- Total implants ([1]; E12): 300
- Total normal fetuses ([1]; E12): 282
- Total resorption sites ([1]; E12): 18
- Total normal fetuses/total animals ([1]; E12, as fraction): 282/29
- Total normal fetuses/total pregnancies ([1]; E12, as fraction): 282/24
- Total resorption sites/total animals ([1]; E12, as fraction): 18/29
- Total resorption sites/total implants ([1]; E12, as fraction): 18/300
- Total resorption sites/total pregnancies ([1]; E12, as fraction): 18/24
- Total normal fetuses/total animals ([1]; E12, quotient): (9.27)
- Total normal fetuses/total pregnancies ([1]; E12, quotient): (11.75)
- Total resorption sites/total animals ([1]; E12, quotient): (0.62)
- Total pregnancy ([1]; number of mice, 1% putrescine in drinking water): 24
- Plug observed ([1]; number of mice, 1% putrescine in drinking water 5-8 days up to plug): 25
- Plug pregnancy ([1]; percent of plugged mice): (92.00%)
- Unplug pregnancy ([1]; percent of unplugged mice): (25.00%)
- Plug pregnancy ([1]; pregnant/plugged mice): 23/25
- Unplug pregnancy ([1]; pregnant/unplugged mice): 1/4
- levels of ovarian spermidine and spermine [2]: remained unchanged
- levels of ovarian putrescine compared to control mice ([2]; before or 5 h after hCG): appreciably higher
- fetal toxicity [3]: fetal toxicity was found
- % Hyperploidy ([4]; 1% putrescine drinking water one week, IVM with 5 mM putrescine): 0%
- % Aneuploidy ([4]; Aneuploid: 2×hyperploid+PSSC, 1% putrescine drinking water one week, IVM with 5 mM putrescine): 5.3%
- Euploid 20 [4, 7]: 83
- Hyperploid 21 [4, 7]: 0
- Hyperploid 22 [4, 7]: 0
- Hypoploid 19 [4, 7]: 21
- PSSC [4, 7]: 6
- Hypoploid 18 ([4]; number of MII eggs, 1% putrescine drinking water one week, then 17 h IVM with 5 mM putrescine): 4
- Hyperploid ([4]; number of eggs per experiment date (breakdown of Table 13)): 0
- number of fully grown GV oocytes in the ovaries ([4]; putrescine in drinking water, n=13): 25.3 /mouse
- Normal MI spindle ([5]; normal/examined MI oocytes): 19/20*
- dead ([5]; number of oocytes): 1
- GV ([5]; number of oocytes remained in prophase I, two experiments): 6
- fragmented ([5]; number of oocytes with abnormal cleavage): 0
- PB1 ([5]; number of oocytes with first polar body): 2
- MI ([5]; number of oocytes, no germinal vesicle and no polar body): 21
- concentration at 20 min ([6]; sc): 42 µM
- concentration at 40 min ([6]; subcutaneous): 16 µM
- concentration at 60 min ([6]; subcutaneous): 8 µM
